One assay deals with FKBP12 (Homo sapiens, UniProt P62942). The assay can be described thus: peptidyl prolyl cis-trans isomerase activity inhibition, FKBP12. Format: biochemical. The following applies: inhibition of prolyl isomerase activity.
Assay [1] concerns Jurkat T FKBP knock out cells. The assay can be described thus: [3H]-2DG uptake in Jurkat T FKBP12, FKBP51, FKBP52 knock out cells. Type of assay: cell-based, human. The settings on record: Jurkat T FKBP12, FKBP51, FKBP52 KO versus WT. The method, then: To further determine the dependence of RgA on endogenous FKBP, three major isoforms of FKBP, FKBP12, FKBP51 and FKBP52 were knocked out using CRISPR-Cas9 in Jurkat T cells. Guo et al., Nat. Chem. 2019, 11, 254-263. Unlike ENT1 inhibitor rapacodin, Guo et al., Nat.
(§1) The inhibitory activity of compounds on glucose transport was analyzed by measuring the cell uptake of [3H]-2DG as previously described. Ulanovskaya et al., Chem. Biol. 2011, 18, 222-230. Briefly, cells were washed twice and incubated in low-glucose medium for 10 min. Cells were added drugs and incubated for another 10 min before adding [3H]-2DG. After 10 min incubation with [3H]-2DG, cells were washed twice and lysed with 0.2 N NaOH plus 0.2% SDS. The cell lysate was transferred to a new tube containing 1 mL of optiphase supermix. Glucose uptake was quantified with a scintillation counter.

The test system of assay [2] is sealed erythrocyte membranes. The assay can be described thus: [3H]-2DG uptake in purified sealed erythrocyte membranes. Format: cell-based, human. The settings on record: read-out: IC50 [3H]-2DG uptake into sealed erythrocyte membranes. The method, then: To determine which of the 17 rapafucin hits inhibited the transporter activity of GLUT1, an orthogonal glucose uptake assay using 2-deoxy-D-[3H] glucose ([3H]-2DG), a nonhydrolyzable, radioactive glucose analog, was employed. Each hit was separately incubated with A549 cells for 10 min before the amount of [3H]-2DG taken up by the cells was measured using scintillation counting. […] The effect of JW11-D2 on uptake of [3H]-2DG in human red blood cells that exclusively express GLUT1 was then determined. Helgerson and Carruthers, J. Biol. Chem. 1987, 262, 5464-5475. […] To further improve the potency of JW11-D2, a structure-activity relationship (SAR) study was performed by synthesizing 21 new analogs of JW11-D2 using different amino acid building blocks.

Assay [3] deals with Jurkat T. In words: Alamar blue cell proliferation assay, Jurkat T. Format: cell-based, human. The following applies: 72 h, read-out: IC50 Assay B (Alamar blue cell proliferation). The method, then: (§2) The effects of RgA on cell growth, survival, and cell death was then determined. […] Treatment with 5 μM of RgA caused an increase in G1 phase by approximately 23% in comparison to control and approximately 7% and 17% decreases in cells in S and G2/M phases, respectively. The induction in G1 phase cell cycle arrest by RgA is dose-dependent (FIG. 5A, FIG. 16). […] Jones and Thompson, Genes Dev. 2009, 23, 537-548. […] The IC50 values of RgA against several human cancer cell lines also was determined using the alamar blue cell proliferation assay.
(§3) Cells were seeded into a 96-well plate (Costar) in 180 μL culture media. After an overnight recovery, drugs were added and incubated for 72 h. After drug incubation, cells were added with 20 μL of alamar blue reagent and the plates were incubated at 37° C. for 6 h before reading the fluorescence (544 nm Ex/590 nm Em) with a plate reader. GraphPad Prism (v4.03) software was used to determine IC50 values using a four parameter logistic regression.

The test system of assay [4] is Jurkat T. In words: [3H]-2DG uptake assay in Jurkat T cells. Format: cell-based, human. The method, then: (§4) Hay, Nat. Rev. […] To determine whether RgA could inhibit glucose uptake in cancer cell lines in addition to A549, the impact of RgA on [3H]-2DG uptake in six other cancer cell lines, including HCC1954, MCF-7, PANC10.05, Jurkat T, HeLa, and RKO was measured (FIG. 3A, Table 3).
as §1

Assay [5] relates to MCF-7. The assay can be described thus: Alamar blue cell proliferation assay, MCF-7. Type of assay: cell-based, human. The following applies: MCF-7, 72 h; read-out: IC50 Assay B (Alamar blue cell proliferation). The method, then:
as §2, §3

The test system of the next assay is p53 and p21. In words: Western blot of p53 and p21 in MCF-7 cells. Format: cell-based, human. The following applies: MCF-7, 24-h treatment, dose-dependent. The method, then:
as §2
For western blot analysis, cells were harvested and lysed by RIPA buffer plus protease inhibitor. Cell lysates or samples from pull-down experiment were subjected to SDS/PAGE and then transferred to a nitrocellulose membrane. Membranes were first blocked in 5% (wt/vol) BSA in Tris-buffered saline plus 0.1% Tween 20 (TBST) at room temperature for 30 min and incubated with primary antibodies at 4° C. for overnight. Membranes were then washed three times with TBST and incubated with secondary antibodies at room temperature for another 1 h. Membranes were washed with TBST three times again and incubated with ECL substrate for 1 min at room temperature. Pictures were captured using a GeneSys Image Station.

For a further assay, the target named is FKBP52 (Homo sapiens, UniProt Q02790). In words: peptidyl prolyl cis-trans isomerase activity inhibition, FKBP52. The settings on record: inhibition of prolyl isomerase activity. Type of assay: biochemical.
Chain of FKBP52 (Q02790 whole entry, species assumed): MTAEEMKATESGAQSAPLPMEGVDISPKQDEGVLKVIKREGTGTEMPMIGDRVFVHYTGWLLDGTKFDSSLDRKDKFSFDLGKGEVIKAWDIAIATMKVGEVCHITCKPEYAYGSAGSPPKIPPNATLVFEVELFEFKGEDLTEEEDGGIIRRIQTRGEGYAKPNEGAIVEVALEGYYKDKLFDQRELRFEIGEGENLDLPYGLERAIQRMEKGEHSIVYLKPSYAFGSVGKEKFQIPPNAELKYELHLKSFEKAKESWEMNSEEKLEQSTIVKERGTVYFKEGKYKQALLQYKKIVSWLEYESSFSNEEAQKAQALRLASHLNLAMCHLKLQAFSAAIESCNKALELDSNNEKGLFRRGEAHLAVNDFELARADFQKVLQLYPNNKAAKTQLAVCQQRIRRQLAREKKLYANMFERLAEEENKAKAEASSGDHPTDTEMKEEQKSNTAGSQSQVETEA
For the next assay, the system named is HCC1954. The assay can be described thus: Alamar blue cell proliferation assay, HCC1954. Type of assay: cell-based, human. The settings on record: HCC1954, 72 h; read-out: IC50 Assay B (Alamar blue cell proliferation). The method, then: as §2, §3
In a further assay the test system is HeLa. In words: [3H]-2DG uptake assay in HeLa cells. Type of assay: cell-based, human. The method, then: as §4, §1
The target in a further assay is FKBP51 (Homo sapiens, UniProt Q13451). In words: peptidyl prolyl cis-trans isomerase activity inhibition, FKBP51. Format: biochemical. The settings on record: inhibition of prolyl isomerase activity.
Chain of FKBP51 (Q13451 whole entry): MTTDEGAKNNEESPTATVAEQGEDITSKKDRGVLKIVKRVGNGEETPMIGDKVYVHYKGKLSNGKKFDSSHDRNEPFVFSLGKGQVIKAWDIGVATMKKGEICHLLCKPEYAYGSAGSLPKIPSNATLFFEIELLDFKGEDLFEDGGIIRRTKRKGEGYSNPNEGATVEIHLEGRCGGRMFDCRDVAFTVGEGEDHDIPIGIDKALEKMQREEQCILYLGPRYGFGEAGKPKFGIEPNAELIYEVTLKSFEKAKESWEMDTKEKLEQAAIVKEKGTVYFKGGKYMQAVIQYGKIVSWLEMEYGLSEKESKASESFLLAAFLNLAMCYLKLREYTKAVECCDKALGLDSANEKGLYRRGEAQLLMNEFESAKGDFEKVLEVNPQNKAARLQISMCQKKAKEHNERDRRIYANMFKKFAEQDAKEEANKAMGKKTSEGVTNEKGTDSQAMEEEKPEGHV
The test system of the next assay is A549. The assay can be described thus: Alamar blue cell proliferation assay, A549. The following applies: A549, 72 h; read-out: IC50 Assay B (Alamar blue cell proliferation). Format: cell-based, human. The method, then: as §2, §3
Another assay concerns MCF-7 cells. In words: LC/MS metabolite profiling of MCF-7 cells. Format: cell-based, human. The method, then:
To understand the metabolic impact of GLUT inhibition by RgA, the steady-state levels of 272 metabolites was determined using LC/MS, Liu et al, Anal. Chem. 2014, 86, 2175-2184, in MCF-7 cells upon treatment with RgA for 30 min and 6 h, respectively.
MCF-7 Cells were seeded into 6-well plate at a density of 5×10^5 cells per well, allowed to recover overnight and subsequently treated with RgA or vehicle control for 30 min and 6 h, respectively. Metabolites were extracted and analyzed as previously described. Liu et al., Anal. Chem. 2014, 86, 2175-2184.

The subject of the next assay is PANC10.05. The assay can be described thus: [3H]-2DG uptake assay in PANC10.05 cells. Type of assay: cell-based, human. The settings on record: PANC 10.05. The method, then:
as §4, §1

The next assay concerns the target FKBP25 (Homo sapiens, UniProt Q00688). The assay can be described thus: peptidyl prolyl cis-trans isomerase activity inhibition, FKBP25. Format: biochemical. The following applies: inhibition of prolyl isomerase activity.
The test system of assay [6] is MCF-7. The assay can be described thus: [3H]-2DG uptake assay in MCF-7 cells. Type of assay: cell-based, human. The method, then:
as §4, §1

Setting [7] is: MCF-7, 30 min and 6 h treatment.

A value given as a limit tells only on which side of the number the result lay.

Chain of FKBP25 (Q00688 whole entry, species assumed): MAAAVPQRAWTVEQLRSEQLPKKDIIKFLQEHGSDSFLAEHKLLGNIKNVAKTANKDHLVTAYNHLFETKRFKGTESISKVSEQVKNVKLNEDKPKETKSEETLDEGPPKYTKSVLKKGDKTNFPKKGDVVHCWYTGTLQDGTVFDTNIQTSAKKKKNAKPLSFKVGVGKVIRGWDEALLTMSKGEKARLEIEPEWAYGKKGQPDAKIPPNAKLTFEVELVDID
Chain of FKBP12 (P62942 whole entry, species assumed, canonical isoform): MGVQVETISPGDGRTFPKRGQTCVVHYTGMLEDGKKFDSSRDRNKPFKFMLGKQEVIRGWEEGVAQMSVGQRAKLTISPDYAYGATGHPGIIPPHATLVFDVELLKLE

As for `CCC(C)C1C(=O)NCC(=O)N(C)CCC=CC(=O)OCC(C)(C)C(=O)C(=O)N2CCCCC2C(=O)OC(CCc2ccc(OC)c(OC)c2)c2cccc(c2)NC(=O)CCC(=O)N(C)C(CC(C)C)C(=O)NC(Cc2ccccc2)C(=O)N1C` (stereo not shown) [JW11-D2, Rapaglutin A], the inhibition constant Ki at FKBP12 was 1.5 nM; at FKBP52, 32 ± 3 nM; on FKBP51, 46 ± 10 nM; on FKBP25 it was > 5000 nM. Moreover, the “effect of knockout of three FKBP isoforms on sensitivity of cells” value in assay [1] is listed as “negligible effects”. For the same compound, the IC50 is 49.5 nM in assay [2]; 132 nM in the assay on Jurkat T [3]; 10.1 nM in the assay with Jurkat T [4]; 87.3 nM with MCF-7 [5]; 109 nM in the assay on HCC1954; 18.9 nM with HeLa. For the same compound, the IC50 was 189 nM in the assay with A549, 9.5 nM with PANC10.05 and 3.3 nM in the assay with MCF-7 [6] (MCF-7). Also, the “p53 and p21 activation” value in the assay on p53 and p21 was “activation of both p53 and p21”. In addition, in the assay with MCF-7 cells (MCF-7), the “cellular ATP level and AMP/ATP ratio” value was “increase in the AMP/ATP ratio”. In addition, in the assay with MCF-7 cells (setting [7]), the “TCA cycle and redox status” value is on record as “not significantly affected”. Also, the “upper glycolytic and pentose phosphate pathway intermediates (G6P, F1,6-BP, DHAP, 6PGA, R5P, E4P)” value in the assay on MCF-7 cells (setting [7]) is reported as “significant decreases”. Also, the “effect of high concentration of FK506 and rapamycin on the inhibitory activity of RgA” value in the assay with MCF-7 [6] (MCF-7, 100 nM RgA, 20 μM FK506, 20 μM Rapamycin) was “negligible effect”.
